Columns and labels:
Cannabinoid CB1 = target: T1, Cannabinoid CB1 (Homo sapiens, UniProt P21554); test: SafetyScreen44 217050; assay type: binding; settings: 10 μM; [3H]SR141716A; recombinant
T1 construct: Eurofins-Panlabs (contract screen) 217050
Procedure: (§1) A broad screen of 44 molecular targets (SafetyScreen44, Eurofins-Panlabs) for Ariadne were performed, which includes G protein-coupled receptors, steroid nuclear receptors, ion channels, neurotransmitter transporters, and metabolic and signaling enzymes. Only two molecular targets, 5-HT2A and 5-HT2B receptors, emerged above the positive hit threshold, defined as 50% displacement of standard radioligands by 10 uM concentration of Ariadne (FIG. 1b, and Table 1).
(§2) For species, “H”=human, “R”=rat. Test compound screened at all targets at concentration of 10 μM.

[1] = test system: Calcium Channel L-Type, Dihydropyridine; test: SafetyScreen44 214600; assay type: binding, rat; settings: 10 μM; [3H]Nitrendipine; cerebral cortex
Procedure: as §1, §2

[2] = target: T2, Serotonin (5-Hydroxytryptamine) 5-HT3 (Homo sapiens, UniProt P46098); test: SafetyScreen44 271910; assay type: binding; settings: 10 μM; [3H]GR-65630; recombinant
T2 construct: purchased Eurofins-Panlabs (contract screen SafetyScreen44) assay ID 271910
T2 sequence (P46098 24-478): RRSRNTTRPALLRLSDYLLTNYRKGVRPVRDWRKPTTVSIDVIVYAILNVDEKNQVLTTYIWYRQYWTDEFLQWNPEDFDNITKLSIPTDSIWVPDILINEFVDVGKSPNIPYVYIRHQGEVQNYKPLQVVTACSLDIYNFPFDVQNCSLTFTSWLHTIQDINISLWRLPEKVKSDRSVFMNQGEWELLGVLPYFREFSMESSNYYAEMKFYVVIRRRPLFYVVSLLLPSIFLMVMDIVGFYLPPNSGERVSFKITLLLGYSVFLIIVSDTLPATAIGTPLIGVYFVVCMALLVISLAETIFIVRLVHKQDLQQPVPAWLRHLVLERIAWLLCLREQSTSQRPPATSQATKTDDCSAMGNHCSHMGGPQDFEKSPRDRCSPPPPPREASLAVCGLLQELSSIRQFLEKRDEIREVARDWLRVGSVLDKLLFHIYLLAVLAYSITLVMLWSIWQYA
Procedure: as §1, §2

Vasopressin V1A = target: T3, Vasopressin V1A (Homo sapiens, UniProt P37288); test: SafetyScreen44 287530; assay type: binding; settings: 10 μM; [125I]Phenylacetyl Tyr(Me)PheGlnAsnArgProArgTyr; recombinant
T3 construct: purchased Eurofins-Panlabs (contract screen SafetyScreen44) assay ID 287530
T3 sequence (P37288 whole entry): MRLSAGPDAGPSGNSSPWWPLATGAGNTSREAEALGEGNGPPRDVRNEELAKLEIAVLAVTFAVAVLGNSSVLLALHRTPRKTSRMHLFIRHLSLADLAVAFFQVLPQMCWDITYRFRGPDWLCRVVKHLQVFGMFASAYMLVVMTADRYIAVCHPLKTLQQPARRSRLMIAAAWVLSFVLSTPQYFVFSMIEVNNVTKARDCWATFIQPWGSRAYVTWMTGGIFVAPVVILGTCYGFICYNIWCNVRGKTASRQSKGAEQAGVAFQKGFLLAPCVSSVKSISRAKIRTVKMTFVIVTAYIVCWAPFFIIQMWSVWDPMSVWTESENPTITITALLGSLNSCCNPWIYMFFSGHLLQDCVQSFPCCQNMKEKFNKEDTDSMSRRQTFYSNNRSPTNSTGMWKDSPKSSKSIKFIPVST
Procedure: as §1, §2

Adrenergic β2 = target: T4, Adrenergic β2 (Homo sapiens, UniProt P07550); test: SafetyScreen44 204110; assay type: binding; settings: 10 μM; [3H]CGP-12177; recombinant
T4 construct: Eurofins-Panlabs (contract screen) 204110
T4 sequence (P07550 whole entry): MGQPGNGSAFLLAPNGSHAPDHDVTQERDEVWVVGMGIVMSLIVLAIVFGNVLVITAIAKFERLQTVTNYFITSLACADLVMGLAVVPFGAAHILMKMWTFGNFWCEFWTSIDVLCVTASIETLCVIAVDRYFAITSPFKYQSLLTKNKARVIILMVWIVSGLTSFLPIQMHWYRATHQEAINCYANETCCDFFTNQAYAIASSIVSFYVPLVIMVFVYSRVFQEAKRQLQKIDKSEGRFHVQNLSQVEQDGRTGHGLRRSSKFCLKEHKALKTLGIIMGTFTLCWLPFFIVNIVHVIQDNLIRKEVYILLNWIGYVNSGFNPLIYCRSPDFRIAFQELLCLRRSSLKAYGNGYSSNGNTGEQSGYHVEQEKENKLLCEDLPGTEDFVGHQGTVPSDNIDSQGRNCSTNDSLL
Procedure: as §1, §2

Adrenergic alpha2A = target: T5, Adrenergic alpha2A (Homo sapiens, UniProt P08913); test: SafetyScreen44 203630; assay type: binding; settings: 10 μM; [3H]Rauwolscine; recombinant
T5 construct: Eurofins-Panlabs (contract screen) 203630
T5 sequence (P08913 whole entry): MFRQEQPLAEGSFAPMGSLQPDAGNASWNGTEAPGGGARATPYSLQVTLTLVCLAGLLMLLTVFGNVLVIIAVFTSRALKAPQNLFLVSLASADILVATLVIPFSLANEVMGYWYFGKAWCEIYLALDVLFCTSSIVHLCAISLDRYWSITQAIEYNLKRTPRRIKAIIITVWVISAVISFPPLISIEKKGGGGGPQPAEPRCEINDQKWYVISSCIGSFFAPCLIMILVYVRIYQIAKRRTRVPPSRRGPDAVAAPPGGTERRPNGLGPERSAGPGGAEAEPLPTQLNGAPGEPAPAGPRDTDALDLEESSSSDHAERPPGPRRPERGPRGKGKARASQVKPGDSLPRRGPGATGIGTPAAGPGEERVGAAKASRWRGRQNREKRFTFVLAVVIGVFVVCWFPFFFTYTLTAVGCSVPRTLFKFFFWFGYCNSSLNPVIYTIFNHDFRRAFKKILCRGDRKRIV
Procedure: as §1, §2

rat smooth muscle = settings: compared to serotonin and (R)-DOM; cited from earlier work
Adrenergic β1 = target: T6, Adrenergic β1 (Homo sapiens, UniProt P08588); test: SafetyScreen44 204010; assay type: binding; settings: 10 μM; [125I]Cyanopindolol; recombinant
T6 construct: Eurofins-Panlabs (contract screen) 204010
T6 sequence (P08588 whole entry): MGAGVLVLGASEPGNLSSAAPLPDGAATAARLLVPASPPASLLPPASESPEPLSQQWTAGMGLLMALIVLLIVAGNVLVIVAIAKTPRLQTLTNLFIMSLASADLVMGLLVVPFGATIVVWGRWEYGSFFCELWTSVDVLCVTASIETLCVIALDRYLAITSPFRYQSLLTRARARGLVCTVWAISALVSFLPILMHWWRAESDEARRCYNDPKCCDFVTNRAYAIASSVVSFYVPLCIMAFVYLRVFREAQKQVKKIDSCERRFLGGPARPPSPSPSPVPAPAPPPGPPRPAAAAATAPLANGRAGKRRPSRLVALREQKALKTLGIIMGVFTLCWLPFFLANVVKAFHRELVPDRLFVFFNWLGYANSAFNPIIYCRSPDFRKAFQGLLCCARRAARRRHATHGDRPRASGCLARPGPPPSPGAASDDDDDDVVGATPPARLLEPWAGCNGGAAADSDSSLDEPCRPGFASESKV
Procedure: as §1, §2

Muscarinic M1 = target: T7, Muscarinic M1 (Homo sapiens, UniProt P11229); test: SafetyScreen44 252610; assay type: binding; settings: 10 μM; [3H]N-Methylscopolamine; recombinant
T7 construct: purchased Eurofins-Panlabs (contract screen SafetyScreen44) assay ID 252610
T7 sequence (P11229 whole entry): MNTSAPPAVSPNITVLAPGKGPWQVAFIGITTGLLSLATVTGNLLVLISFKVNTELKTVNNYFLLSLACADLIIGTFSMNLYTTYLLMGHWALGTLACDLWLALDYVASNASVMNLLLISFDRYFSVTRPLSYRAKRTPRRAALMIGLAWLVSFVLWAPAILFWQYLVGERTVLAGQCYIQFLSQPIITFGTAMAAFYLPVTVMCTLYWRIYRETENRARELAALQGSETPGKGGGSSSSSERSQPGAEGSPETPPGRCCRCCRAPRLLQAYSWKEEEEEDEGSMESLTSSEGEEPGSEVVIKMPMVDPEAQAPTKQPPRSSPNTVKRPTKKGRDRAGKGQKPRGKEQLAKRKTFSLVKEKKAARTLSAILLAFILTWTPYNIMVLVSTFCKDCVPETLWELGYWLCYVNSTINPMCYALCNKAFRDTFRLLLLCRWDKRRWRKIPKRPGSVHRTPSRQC
Procedure: as §1, §2

Opiate kappa (OP2, KOP) = target: T8, Opiate kappa (OP2, KOP) (Homo sapiens, UniProt P41145); test: SafetyScreen44 260210; assay type: binding; settings: 10 μM; [3H]Diprenorphine; recombinant
T8 construct: purchased Eurofins-Panlabs (contract screen SafetyScreen44) assay ID 260210
T8 sequence (P41145 whole entry): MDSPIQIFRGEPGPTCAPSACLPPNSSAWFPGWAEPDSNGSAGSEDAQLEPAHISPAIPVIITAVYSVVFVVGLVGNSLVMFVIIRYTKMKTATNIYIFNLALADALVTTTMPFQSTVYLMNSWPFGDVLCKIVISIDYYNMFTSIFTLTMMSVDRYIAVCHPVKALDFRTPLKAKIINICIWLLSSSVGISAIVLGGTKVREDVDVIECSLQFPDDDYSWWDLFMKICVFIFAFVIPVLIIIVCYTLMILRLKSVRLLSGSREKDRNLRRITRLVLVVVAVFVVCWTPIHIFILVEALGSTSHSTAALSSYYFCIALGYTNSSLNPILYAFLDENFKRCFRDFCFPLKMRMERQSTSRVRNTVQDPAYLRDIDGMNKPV
Procedure: as §1, §2

Dopamine D1 = target: T9, Dopamine D1 (Homo sapiens, UniProt P21728); test: SafetyScreen44 219500; assay type: binding; settings: 10 μM; [3H]SCH-23390; recombinant
T9 construct: Eurofins-Panlabs (contract screen) 219500
T9 sequence (P21728 whole entry): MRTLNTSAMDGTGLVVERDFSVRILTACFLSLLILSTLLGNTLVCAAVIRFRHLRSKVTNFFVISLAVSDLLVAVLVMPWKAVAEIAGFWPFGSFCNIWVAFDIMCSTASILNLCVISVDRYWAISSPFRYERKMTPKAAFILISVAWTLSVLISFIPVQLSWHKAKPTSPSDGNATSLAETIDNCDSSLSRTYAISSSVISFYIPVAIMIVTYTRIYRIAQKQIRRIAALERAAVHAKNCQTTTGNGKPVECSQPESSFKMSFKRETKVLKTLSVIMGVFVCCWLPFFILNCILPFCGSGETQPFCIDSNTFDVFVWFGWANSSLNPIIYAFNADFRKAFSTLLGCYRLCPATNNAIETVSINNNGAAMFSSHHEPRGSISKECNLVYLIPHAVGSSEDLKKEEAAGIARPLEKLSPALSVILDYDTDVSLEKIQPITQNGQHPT
Procedure: as §1, §2

Opiate δ1 (OP1, DOP) = target: T10, Opiate δ1 (OP1, DOP) (Homo sapiens, UniProt P41143); test: SafetyScreen44 260130; assay type: binding; settings: 10 μM; [3H]Naltrindole; recombinant
T10 construct: purchased Eurofins-Panlabs (contract screen SafetyScreen44) assay ID 260130
T10 sequence (P41143 whole entry): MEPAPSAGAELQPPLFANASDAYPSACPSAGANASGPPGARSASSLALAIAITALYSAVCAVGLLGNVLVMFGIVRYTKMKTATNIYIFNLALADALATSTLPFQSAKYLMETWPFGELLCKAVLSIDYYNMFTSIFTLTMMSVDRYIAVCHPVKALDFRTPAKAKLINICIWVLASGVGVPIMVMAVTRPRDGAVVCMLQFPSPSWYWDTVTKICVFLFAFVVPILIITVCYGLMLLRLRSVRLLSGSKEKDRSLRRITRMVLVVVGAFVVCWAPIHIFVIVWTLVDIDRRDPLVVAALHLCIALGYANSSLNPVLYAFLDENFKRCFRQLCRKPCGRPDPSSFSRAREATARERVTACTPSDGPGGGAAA
Procedure: as §1, §2

[3] = test system: auxilin knockout (KO) mice; test: Hind limb clasping in auxilin KO mouse model of Parkinson's Disease; assay type: in vivo; settings: Aux-KO mice; 10 mg/kg intraperitoneal; 15 to 30 minutes after treatment
Text: R-Ariadne ameliorates motor abnormalities in a mouse model of Parkinson's Disease. In the 1978 patent from the Bristol Laboratories, the inventors noted complete remission of Parkinson's symptoms in two patients (Partyka el al., U.S. Pat. No. 4,105,695, 1978). To address and examine these claims via reverse translation in mice, we used a novel model of PD based on auxilin knockout (KO) mice (Vidyadhara et al., 2022). Auxilin is a clathrin uncoating protein that participates in clathrin mediated endocytosis of synaptic vesicles (SV), enabling SV recycling and neurotransmission (Vidyadhara et al., 2022). Loss-of-function mutations in auxilin (DNAJC6/PARK19) cause PD. Auxilin KO mice display cardinal features of PD such as progressive motor deficits, nigral dopaminergic neuronal loss, α-synuclein pathology, and neuroinflammation. 9-12 month old Aux-KO mice were previously shown to respond to L-DOPA treatment, which ameliorated PD-like motor abnormalities (Vidyadhara et al., 2022). […] The balance beam test evaluates fine motor skills such as ability to walk on a raised narrow beam to reach a safety box, measured as a number of runs/minute and time taken to cross the beam (FIGS. 9-10). […]

5-HT2C receptor = target: T11, 5-HT2C receptor (Homo sapiens, UniProt P28335); test: Calcium flux assay; assay type: cell-based; settings: read-out: Emax relative to 5-HT, calcium flux
T11 sequence (P28335 33-458): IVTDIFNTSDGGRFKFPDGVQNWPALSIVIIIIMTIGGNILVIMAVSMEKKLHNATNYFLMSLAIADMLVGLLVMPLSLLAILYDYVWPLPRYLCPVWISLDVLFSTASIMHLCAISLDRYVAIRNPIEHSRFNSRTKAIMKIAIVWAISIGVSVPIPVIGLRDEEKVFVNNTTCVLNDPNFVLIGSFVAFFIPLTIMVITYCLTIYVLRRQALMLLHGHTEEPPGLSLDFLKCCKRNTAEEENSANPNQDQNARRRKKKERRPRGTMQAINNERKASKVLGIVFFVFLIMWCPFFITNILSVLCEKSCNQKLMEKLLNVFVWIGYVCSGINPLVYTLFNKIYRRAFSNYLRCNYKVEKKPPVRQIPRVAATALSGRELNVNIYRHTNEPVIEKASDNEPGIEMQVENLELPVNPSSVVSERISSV
Procedure: Therefore, an orthogonal assay measuring calcium flux was also performed for the 5-HT2 receptors (Klein et al., 2020).

T1 sequence (P21554 whole entry): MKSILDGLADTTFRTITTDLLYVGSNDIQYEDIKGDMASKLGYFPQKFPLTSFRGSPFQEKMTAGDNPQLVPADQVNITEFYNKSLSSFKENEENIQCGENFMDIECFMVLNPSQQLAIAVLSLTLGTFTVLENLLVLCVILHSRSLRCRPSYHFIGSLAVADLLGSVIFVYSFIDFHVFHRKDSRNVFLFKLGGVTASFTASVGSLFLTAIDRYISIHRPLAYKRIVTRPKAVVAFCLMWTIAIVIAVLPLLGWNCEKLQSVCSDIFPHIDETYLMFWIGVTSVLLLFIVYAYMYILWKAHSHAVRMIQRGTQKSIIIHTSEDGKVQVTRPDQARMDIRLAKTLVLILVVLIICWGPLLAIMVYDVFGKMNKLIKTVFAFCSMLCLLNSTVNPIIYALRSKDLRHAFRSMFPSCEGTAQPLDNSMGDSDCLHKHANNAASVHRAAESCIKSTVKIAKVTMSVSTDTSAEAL

With `CCC(N)Cc1cc(OC)c(C)cc1OC` (racemic) [Compound 32, 1-(2,5-dimethoxy-4-methylphenyl)butan-2-amine] the “% Response” value (Cannabinoid CB1) was 1%, the “% Response” value [1] was −13% and the “% Response” value [2] was −13%. The “% Response” value (Vasopressin V1A) was −5%, the “% Response” value (Adrenergic β2) was 22% and the “% Response” value (Adrenergic alpha2A) was 34%. The serotonergic-like effect (rat smooth muscle) was “weak serotonergic-like effect”, the “% Response” value (Adrenergic β1) was 17% and the “% Response” value (Muscarinic M1) was −4%. For the same compound, the “% Response” value (Opiate kappa (OP2, KOP)) was 3%, the “% Response” value (Dopamine D1) was 7% and the “% Response” value (Opiate δ1 (OP1, DOP)) was 4%.
In the case of `CC[C@@H](N)Cc1cc(OC)c(C)cc1OC` [(R)-Ariadne], the clasping duration [3] is reported as “down to zero”, the hindlimb clasping score [3] is reported as “down to zero” and the Emax (5-HT2C receptor) is reported as 60%.

Source: patent publication US20260021061A1, “ARIADNE AND ANALOGS FOR THE TREATMENT OF NEUROLOGICAL AND NEUROMUSCLAR DISORDERS” (priority 2022, published 2026)
